According to patent US9675077B2, “Composition comprising antimicrobial metal ions and a quaternary cationic surfactant” (CONVATEC TECHNOLOGIES INC., priority 2011, dated 2017):

Experiments:
bacterial biofilms = test: MBEC (Minimum Biofilm Eradication Concentration) assay using the Calgary Biofilm Device; assay type: cell-based; conditions: for MBEC for the metal ion, Without DDAC: metal ion solution alone, adjusted to approx. pH 5.5; for MBEC for the metal ion, Without DDAC / MBEC for the metal ion, With 0.1% DDAC: lowest concentration at which activity was observed, values approximate; for MBEC for the metal ion, With 0.1% DDAC: metal ion solution in combination with 0.1% DDAC, approx. pH 5.5; for Synergy: metal ion with 0.1% DDAC versus metal ion without DDAC
[1] = system: a range of microorganisms in the biofilm state

Molecule	Effect of EDTA on the synergistic antimicrobial activity of cationic surfactant and metal ion (bacterial biofilms; […] w/w di-sodium EDTA in each test solution)	EDTA concentration effective in making biofilm microorganisms vulnerable to antimicrobial agents [1]	MBEC for the metal ion, Without DDAC (bacterial biofilms)	MBEC for the metal ion, With 0.1% DDAC (bacterial biofilms)	Synergy (bacterial biofilms)	Effectiveness against biofilms in the MBEC model (bacterial biofilms; 0.01% w/w silver, 0.1M acetate buffer, pH 4.7 to 7.7, no surfactant)
O=C(O)CN(CCN(CC(=O)O)CC(=O)O)CC(=O)O [EDTA, ethylenediaminetetra-acetic acid]	further enhances the synergistic antimicrobial activity	0.25-0.5 % weight by volume				
O=[N+]([O-])[O-].O=[N+]([O-])[O-].O=[N+]([O-])[O-].[Ga+3] [Gallium, gallium (III) nitrate]			>1000 ppm	≦0.24 ppm	+ve	
O.O.O.O.O.O.O.O=S(=O)([O-])[O-].[Fe+2] [Iron (II), iron (II) sulphate heptahydrate]			>1000 ppm	≦0.24 ppm	+ve	
O.O.O.O.[Cl][Mn][Cl] [Manganese, manganese (II) chloride tetrahydrate]			>1000 ppm	≦0.24 ppm	+ve	
O=[N+]([O-])[O-].[Ag+] [Silver, silver nitrate]			12.5 ppm	0.097 ppm	+ve	None of the 0.01% silver solutions pH buffered in the range 4.7 to 7.7 were effective against biofilms
copper (II) nitrate trihydrate			15.6 ppm	1.95 ppm	+ve	
iron (III) sulphate hydrate			>1000 ppm	≦0.24 ppm	+ve	
zinc sulphate heptahydrate			>1000 ppm	≦125 ppm	+ve	
